The source made the active and inactive calls. No cut-off for these calls is given here.
Tests used:
Rattus norvegicus [1] = test: Analgesic activity in rat L5/L6 spinal nerve ligation-induced neuropathic pain model at 100 mg/kg, ip; format: functional; conditions: route intraperitoneal
Rattus norvegicus [2] = test: Analgesic activity in rat chronic constriction injury model of mechanical allodynia at 100 mg/kg, ip; format: functional; conditions: route intraperitoneal
Rattus norvegicus [3] = test: Analgesic activity in ip dosed rat chronic constriction injury model of cold allodynic neuropathic pain; format: functional
Rattus norvegicus [4] = test: Analgesic activity in rat chronic constriction injury model of cold allodynic neuropathic pain at 100 mg/kg, ip; format: functional; conditions: route intraperitoneal
Rattus norvegicus [5] = test: Analgesic activity in rat vincristine-induced mechanical allodynic neuropathic pain at 100 mg/kg, ip; format: functional; conditions: route intraperitoneal
Rattus norvegicus [6] = test: Analgesic activity in rat skin incision model of post-operative pain at 100 mg/kg, ip after 2 hrs; format: functional; conditions: route intraperitoneal
Rattus norvegicus [7] = test: Analgesic activity in ip dosed rat skin incision model of post-operative pain after 24 hrs; format: functional
Rattus norvegicus [8] = test: Analgesic activity in rat skin incision model of post-operative pain at 100 mg/kg, ip after 24 hrs; format: functional; conditions: route intraperitoneal
Rattus norvegicus [9] = test: Analgesic activity in rat colonic distension model at 100 mg/kg, ip; format: functional; conditions: route intraperitoneal
Rattus norvegicus [10] = organism: Rattus norvegicus; test: Motor effect in rat assessed as locomotory activity; format: functional
Rattus norvegicus [11] = test: Motor effect in rat assessed as locomotory activity at 300 mg/kg, ip; format: functional; conditions: route intraperitoneal
P2Y purinoceptor 2 = P2Y purinoceptor 2 (Homo sapiens, UniProt P41231); test: Displacement of [35S]dATP-alpha-S from P2Y receptor
[12] = target: 5-hydroxytryptamine receptor 2A (Homo sapiens, UniProt P28223); test: Displacement of [3H]ketanserin from 5HT2A receptor
[13] = target: 5-hydroxytryptamine receptor 2C (Homo sapiens, UniProt P28335); test: Displacement of [3H]mesulergine from 5HT2C receptor
[14] = target: 5-hydroxytryptamine receptor 5A (Homo sapiens, UniProt P47898); test: Displacement of [3H]LSD from 5HT5A receptor
[15] = target: 5-hydroxytryptamine receptor 7 (Homo sapiens, UniProt P34969); test: Displacement of [3H]LSD from 5HT7 receptor
DRG neuron [16] = test: Suppression of spontaneous firing of rat DRG neurons at 0.3 uM; format: functional, cell-based
[17] = Oral bioavailability in rat; format: ADME, organism-based; conditions: in vivo
[18] = Volume of distribution in rat; format: ADME, organism-based; conditions: in vivo, read-out: Vbeta
[19] = Cmax in rat at 10 mg/kg, po; format: ADME, organism-based; parameters: dose 10 mg/kg, route oral; conditions: in vivo
[20] = Tmax in rat at 10 mg/kg, po; format: ADME, organism-based; parameters: dose 10 mg/kg, route oral; conditions: in vivo
[21] = target: Potassium voltage-gated channel subfamily KQT member 2 (Homo sapiens, UniProt O43526); test: Inhibition of KCNQ2 channel
DRG neuron [22] = test: Suppression of evoked action potential firing in rat DRG neurons at 0.3 uM; format: functional, cell-based
DRG neuron [23] = test: Suppression of evoked action potential firing in rat DRG neurons at 0.1 uM; format: functional
[24] = Cmax in rat at 10 mg/kg, ip; format: ADME, organism-based; parameters: dose 10 mg/kg, route intraperitoneal; conditions: in vivo
[25] = Protein binding in rat plasma; format: ADME, cell-free; conditions: read-out: PPB (converted)
Rattus norvegicus [26] = organism: Rattus norvegicus; test: Analgesic activity in rat spinal nerve ligation model at 200 to 300 nM; format: functional
Rattus norvegicus [27] = test: Antinociceptive activity in rat assessed as reduction of spontaneous firing of spinal dorsal horn wide dynamic range neurons at 20 mg/kg, iv; format: functional, Dorsal horn of spinal cord; parameters: scale not given: the % may be the effect or the level left
Rattus norvegicus [28] = test: Antinociceptive activity in rat assessed as reduction of von Frey evoked firing of spinal dorsal horn wide dynamic range neurons at 20 mg/kg, iv; format: functional, Dorsal horn of spinal cord; parameters: scale not given: the % may be the effect or the level left
Rattus norvegicus [29] = test: Analgesic activity in ip dosed rat acute thermal stimulation nociception model assessed as paw withdrawal latency; format: functional
Rattus norvegicus [30] = test: Analgesic activity in rat capsaicn induced mechanical allodynia model at 300 mg/kg, ip; format: functional; conditions: route intraperitoneal
Rattus norvegicus [31] = test: Analgesic activity in rat complete Freund's adjuvant-induced thermal hyperalgesia model assessed as paw withdrawal latency at 100 mg/kg, ip after 2 days; format: functional; conditions: route intraperitoneal
Rattus norvegicus [32] = test: Analgesic activity in ip dosed rat complete Freund's adjuvant-induced thermal hyperalgesia model assessed as paw withdrawal latency after 4 days; format: functional; conditions: 96 h
Adenosine receptor A3 = Adenosine receptor A3 (Homo sapiens, UniProt P0DMS8); test: Displacement of [125I]AB-MECA from adenosine A3 receptor
Endothelin-1 receptor = Endothelin-1 receptor (Homo sapiens, UniProt P25101); test: Displacement of [125I]endothelin-1 from endothelin ETA receptor
D(1A) dopamine receptor = D(1A) dopamine receptor (Homo sapiens, UniProt P21728); test: Displacement of [3H]SCH-23390 from dopamine D1 receptor
Cannabinoid receptor 2 = Cannabinoid receptor 2 (Homo sapiens, UniProt P34972); test: Displacement of [3H]Win 55212-2 from cannabinoid CB2 receptor
P2X purinoceptor 2 = P2X purinoceptor 2 (Homo sapiens, UniProt Q9UBL9); test: Inhibition of P2X2 receptor
[33] = target: Sodium channel protein type 10 subunit alpha (Rattus norvegicus, UniProt Q62968); test: Inhibition of Nav1.8 channel in rat dorsal root ganglion neurons assessed as blockade of TTX-R current by patch clamp method; format: tissue-based
[34] = target: T1, Sodium channel protein type 10 subunit alpha (Homo sapiens, UniProt Q9Y5Y9); test: Inhibition of human Nav1.8 channel expressed in HEK293 cells at -100 mV by patch clamp method; format: cell-based
[35] = target: T1, Sodium channel protein type 10 subunit alpha; test: Inhibition of human Nav1.8 channel expressed in HEK293 cells at -40 mV by patch clamp method; format: cell-based
[36] = target: T2, Sodium channel protein type 3 subunit alpha (Homo sapiens, UniProt Q9NY46); test: Inhibition of human Nav1.3 channel expressed in HEK293 cells at -120 mV by patch clamp method; format: cell-based
[37] = target: T2, Sodium channel protein type 3 subunit alpha; test: Inhibition of human Nav1.3 channel expressed in HEK293 cells at -60 mV by patch clamp method; format: cell-based
[38] = target: Sodium channel protein type 9 subunit alpha (Homo sapiens, UniProt Q15858); test: Inhibition of human Nav1.7 channel expressed in HEK293 cells at -60 mV by patch clamp method; format: cell-based
P2X purinoceptor 3 = P2X purinoceptor 3 (Homo sapiens, UniProt P56373); test: Inhibition of P2X3 receptor
D(3) dopamine receptor = D(3) dopamine receptor (Homo sapiens, UniProt P35462); test: Displacement of [3H]spiperone from dopamine D3 receptor
D(1B) dopamine receptor = D(1B) dopamine receptor (Homo sapiens, UniProt P21918); test: Displacement of [3H]SCH23390 from dopamine D5 receptor
[39] = target: C-X-C chemokine receptor type 2 (Homo sapiens, UniProt P25025); test: Displacement of [125I]IL8 from CXCR2 receptor
Histamine H1 receptor = Histamine H1 receptor (Homo sapiens, UniProt P35367); test: Displacement of [3H]pyrilamine from histamine H1 receptor
Histamine H2 receptor = Histamine H2 receptor (Homo sapiens, UniProt P25021); test: Displacement of [125I]APT from histamine H2 receptor
[40] = target: Muscarinic acetylcholine receptor M4 (Homo sapiens, UniProt P08173); test: Displacement of [3H]4DAMP from muscarinic M4 receptor
[41] = target: Delta-type opioid receptor (Homo sapiens, UniProt P41143); test: Displacement of [3H]DADLE from opioid delta receptor
[42] = Displacement of [3H]PACAP1-27 from PACAP PAC1 receptor

T2 sequence (Q9NY46 whole entry): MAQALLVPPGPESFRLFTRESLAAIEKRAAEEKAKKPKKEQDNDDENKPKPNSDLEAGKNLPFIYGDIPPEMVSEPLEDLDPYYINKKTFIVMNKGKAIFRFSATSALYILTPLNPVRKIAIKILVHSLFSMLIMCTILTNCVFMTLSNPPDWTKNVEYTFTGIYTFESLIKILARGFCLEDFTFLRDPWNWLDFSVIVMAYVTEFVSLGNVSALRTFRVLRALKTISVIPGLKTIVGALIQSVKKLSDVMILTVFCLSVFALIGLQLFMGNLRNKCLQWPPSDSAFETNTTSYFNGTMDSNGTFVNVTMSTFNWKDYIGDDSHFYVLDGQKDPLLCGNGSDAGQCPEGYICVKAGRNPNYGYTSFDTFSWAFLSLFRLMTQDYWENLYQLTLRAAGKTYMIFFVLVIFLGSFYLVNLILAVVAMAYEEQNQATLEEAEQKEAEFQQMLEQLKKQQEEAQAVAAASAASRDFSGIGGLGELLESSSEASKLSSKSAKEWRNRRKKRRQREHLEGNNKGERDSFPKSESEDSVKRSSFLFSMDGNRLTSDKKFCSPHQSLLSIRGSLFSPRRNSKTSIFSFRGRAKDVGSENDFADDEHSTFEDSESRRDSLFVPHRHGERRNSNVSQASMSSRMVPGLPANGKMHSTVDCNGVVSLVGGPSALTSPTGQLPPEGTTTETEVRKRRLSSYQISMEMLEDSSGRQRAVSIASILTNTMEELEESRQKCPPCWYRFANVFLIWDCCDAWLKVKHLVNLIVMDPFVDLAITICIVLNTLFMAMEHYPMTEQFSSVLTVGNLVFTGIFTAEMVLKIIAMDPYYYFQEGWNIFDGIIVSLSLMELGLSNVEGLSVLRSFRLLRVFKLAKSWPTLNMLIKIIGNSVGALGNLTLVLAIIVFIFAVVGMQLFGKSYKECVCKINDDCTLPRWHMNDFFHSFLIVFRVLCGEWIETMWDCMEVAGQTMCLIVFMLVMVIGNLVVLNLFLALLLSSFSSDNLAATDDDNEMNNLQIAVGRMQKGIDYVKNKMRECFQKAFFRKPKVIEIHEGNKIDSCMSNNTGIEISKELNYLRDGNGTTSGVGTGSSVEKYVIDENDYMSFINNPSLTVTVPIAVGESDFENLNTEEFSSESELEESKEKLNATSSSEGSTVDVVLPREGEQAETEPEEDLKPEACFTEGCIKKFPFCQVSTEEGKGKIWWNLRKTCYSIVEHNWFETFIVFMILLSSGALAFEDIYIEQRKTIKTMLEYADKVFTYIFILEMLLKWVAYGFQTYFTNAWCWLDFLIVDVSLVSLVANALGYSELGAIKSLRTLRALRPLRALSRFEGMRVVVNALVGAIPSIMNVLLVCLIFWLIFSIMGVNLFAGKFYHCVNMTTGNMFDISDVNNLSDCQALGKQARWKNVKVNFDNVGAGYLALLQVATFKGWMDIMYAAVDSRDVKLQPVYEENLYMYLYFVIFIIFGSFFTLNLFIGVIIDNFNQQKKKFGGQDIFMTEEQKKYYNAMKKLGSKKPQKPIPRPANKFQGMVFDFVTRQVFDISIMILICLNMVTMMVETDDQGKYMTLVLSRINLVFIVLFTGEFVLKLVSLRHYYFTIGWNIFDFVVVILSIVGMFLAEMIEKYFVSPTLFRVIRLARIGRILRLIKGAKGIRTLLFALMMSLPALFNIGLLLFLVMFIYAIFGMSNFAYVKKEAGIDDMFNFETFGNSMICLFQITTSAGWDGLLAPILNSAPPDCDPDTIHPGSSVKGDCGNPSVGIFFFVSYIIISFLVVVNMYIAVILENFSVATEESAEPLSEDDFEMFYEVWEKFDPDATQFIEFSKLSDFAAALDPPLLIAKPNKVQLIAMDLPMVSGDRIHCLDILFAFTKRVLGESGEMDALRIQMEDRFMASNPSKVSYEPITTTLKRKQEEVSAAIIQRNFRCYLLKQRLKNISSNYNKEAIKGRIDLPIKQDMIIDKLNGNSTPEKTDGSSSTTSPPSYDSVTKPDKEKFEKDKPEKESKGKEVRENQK
T1 sequence (Q9Y5Y9 whole entry): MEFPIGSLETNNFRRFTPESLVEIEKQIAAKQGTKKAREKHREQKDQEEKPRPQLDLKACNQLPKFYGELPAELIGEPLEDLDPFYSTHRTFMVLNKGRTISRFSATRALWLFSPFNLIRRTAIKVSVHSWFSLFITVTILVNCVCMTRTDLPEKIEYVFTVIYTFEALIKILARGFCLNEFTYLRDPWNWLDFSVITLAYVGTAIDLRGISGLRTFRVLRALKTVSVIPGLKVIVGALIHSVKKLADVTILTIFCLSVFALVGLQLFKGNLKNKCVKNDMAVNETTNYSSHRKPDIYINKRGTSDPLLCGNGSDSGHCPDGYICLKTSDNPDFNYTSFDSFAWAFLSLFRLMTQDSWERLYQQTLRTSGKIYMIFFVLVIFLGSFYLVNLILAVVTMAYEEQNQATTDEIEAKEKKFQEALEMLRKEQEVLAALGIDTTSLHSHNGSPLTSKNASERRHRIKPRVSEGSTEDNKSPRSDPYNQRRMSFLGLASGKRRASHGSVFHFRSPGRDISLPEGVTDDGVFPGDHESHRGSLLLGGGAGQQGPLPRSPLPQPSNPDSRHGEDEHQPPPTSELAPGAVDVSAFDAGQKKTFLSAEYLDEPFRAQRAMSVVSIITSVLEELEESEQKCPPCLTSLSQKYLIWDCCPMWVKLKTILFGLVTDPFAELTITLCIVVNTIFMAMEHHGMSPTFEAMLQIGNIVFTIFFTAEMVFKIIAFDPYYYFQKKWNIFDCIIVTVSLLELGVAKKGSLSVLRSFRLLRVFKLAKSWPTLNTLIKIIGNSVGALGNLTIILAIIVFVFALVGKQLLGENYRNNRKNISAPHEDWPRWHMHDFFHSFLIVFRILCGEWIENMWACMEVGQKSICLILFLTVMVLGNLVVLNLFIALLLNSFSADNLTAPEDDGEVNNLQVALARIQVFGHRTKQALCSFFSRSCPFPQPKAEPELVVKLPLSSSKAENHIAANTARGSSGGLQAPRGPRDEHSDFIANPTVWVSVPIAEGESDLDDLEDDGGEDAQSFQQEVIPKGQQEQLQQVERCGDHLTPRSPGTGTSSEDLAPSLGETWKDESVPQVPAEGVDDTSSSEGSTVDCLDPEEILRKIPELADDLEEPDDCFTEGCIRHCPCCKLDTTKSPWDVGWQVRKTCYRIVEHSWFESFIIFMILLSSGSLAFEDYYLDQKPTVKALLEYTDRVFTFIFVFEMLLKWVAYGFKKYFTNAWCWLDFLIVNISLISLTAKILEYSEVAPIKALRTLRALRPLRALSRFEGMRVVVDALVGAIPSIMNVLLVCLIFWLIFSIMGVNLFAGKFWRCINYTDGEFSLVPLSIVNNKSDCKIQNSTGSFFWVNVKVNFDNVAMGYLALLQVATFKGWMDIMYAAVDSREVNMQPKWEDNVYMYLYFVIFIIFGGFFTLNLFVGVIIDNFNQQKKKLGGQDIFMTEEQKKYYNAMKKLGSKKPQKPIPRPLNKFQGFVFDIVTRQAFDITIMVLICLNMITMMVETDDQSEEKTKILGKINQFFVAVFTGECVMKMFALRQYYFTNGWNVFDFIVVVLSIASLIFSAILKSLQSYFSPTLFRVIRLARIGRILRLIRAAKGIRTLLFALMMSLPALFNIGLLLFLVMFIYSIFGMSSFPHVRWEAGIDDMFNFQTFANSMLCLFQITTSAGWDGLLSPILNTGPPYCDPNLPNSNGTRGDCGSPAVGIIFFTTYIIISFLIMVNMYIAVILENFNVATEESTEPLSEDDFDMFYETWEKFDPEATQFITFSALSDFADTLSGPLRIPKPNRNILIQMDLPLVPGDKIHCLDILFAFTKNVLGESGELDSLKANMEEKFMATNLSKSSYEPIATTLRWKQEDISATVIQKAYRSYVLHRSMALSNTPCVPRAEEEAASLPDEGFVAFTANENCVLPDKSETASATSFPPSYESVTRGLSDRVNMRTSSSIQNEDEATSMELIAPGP
Chain of P2X purinoceptor 2 (Q9UBL9 whole entry): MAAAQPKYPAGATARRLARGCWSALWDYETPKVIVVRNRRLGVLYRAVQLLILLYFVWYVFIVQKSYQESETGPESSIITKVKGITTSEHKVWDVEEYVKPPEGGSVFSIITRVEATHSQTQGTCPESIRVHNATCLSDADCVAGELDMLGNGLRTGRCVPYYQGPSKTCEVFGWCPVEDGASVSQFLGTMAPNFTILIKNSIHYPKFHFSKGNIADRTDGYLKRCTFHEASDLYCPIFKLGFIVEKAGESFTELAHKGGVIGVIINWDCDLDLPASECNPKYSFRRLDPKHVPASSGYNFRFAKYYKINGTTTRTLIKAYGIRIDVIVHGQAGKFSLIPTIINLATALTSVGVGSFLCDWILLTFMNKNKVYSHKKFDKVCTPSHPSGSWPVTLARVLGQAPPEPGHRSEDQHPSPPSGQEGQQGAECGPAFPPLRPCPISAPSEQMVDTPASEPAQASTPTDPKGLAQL
Chain of D(3) dopamine receptor (P35462 whole entry): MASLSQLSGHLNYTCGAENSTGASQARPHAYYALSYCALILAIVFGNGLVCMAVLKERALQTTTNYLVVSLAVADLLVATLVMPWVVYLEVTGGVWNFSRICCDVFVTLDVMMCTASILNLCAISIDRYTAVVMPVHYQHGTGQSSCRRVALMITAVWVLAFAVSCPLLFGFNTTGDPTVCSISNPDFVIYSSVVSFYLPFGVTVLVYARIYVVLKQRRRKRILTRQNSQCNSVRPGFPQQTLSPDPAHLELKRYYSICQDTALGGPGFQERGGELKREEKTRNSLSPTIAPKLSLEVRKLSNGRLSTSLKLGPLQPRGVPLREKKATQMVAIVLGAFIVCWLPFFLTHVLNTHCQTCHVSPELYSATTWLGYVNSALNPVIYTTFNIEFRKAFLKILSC

COc1cc(NC(=O)c2ccc(-c3ccc(Cl)cc3)o2)cc(OC)c1
Activity (Rattus norvegicus [1]): 70%
Activity (Rattus norvegicus [2]): 56%
ED50 (Rattus norvegicus [3]): 70 mg/kg
Activity (Rattus norvegicus [4]): 61%
Activity (Rattus norvegicus [5]): 9%
Activity (Rattus norvegicus [6]): 14%
ED50 (Rattus norvegicus [7]): > 100 mg/kg
Activity (Rattus norvegicus [8]): 32%
Activity (Rattus norvegicus [9]): 25%
ED50 (Rattus norvegicus [10]): > 300 mg/kg
Activity (Rattus norvegicus [11]): 12%
IC50 (P2Y purinoceptor 2): > 10 µM
IC50 [12]: 3 µM
IC50 [13]: > 10 µM
IC50 [14]: > 10 µM
IC50 [15]: > 10 µM
Activity (DRG neuron [16]): Active
bioavailability [17]: 12.8%
Vd [18]: 11.5 L/kg
Cmax [19]: 190 ng/mL
Tmax [20]: 1.5 h
IC50 [21]: > 10 µM
Activity (DRG neuron [22]): Active
Activity (DRG neuron [23]): inactive
Cmax [24]: 350 ng/mL
fraction unbound [25]: 0.013
Activity (Rattus norvegicus [26]): >70%
Activity (Rattus norvegicus [27]): 66%
Activity (Rattus norvegicus [28]): 53%
ED50 (Rattus norvegicus [29]): > 100 mg/kg
Activity (Rattus norvegicus [30]): 46%
Activity (Rattus norvegicus [31]): 64%
ED50 (Rattus norvegicus [32]): 100 mg/kg
IC50 (Adenosine receptor A3): 12 µM
IC50 (Endothelin-1 receptor): > 10 µM
IC50 (D(1A) dopamine receptor): 7 µM
IC50 (Cannabinoid receptor 2): > 10 µM
IC50 (P2X purinoceptor 2): > 10 µM
IC50 [33]: 0.14 µM
IC50 [34]: 0.079 µM
IC50 [35]: 0.008 µM
IC50 [36]: 11.8 µM
IC50 [37]: 2.45 µM
IC50 [38]: 6.74 µM
IC50 (P2X purinoceptor 3): > 10 µM
IC50 (D(3) dopamine receptor): > 10 µM
IC50 (D(1B) dopamine receptor): > 10 µM
IC50 [39]: > 10 µM
IC50 (Histamine H1 receptor): > 10 µM
IC50 (Histamine H2 receptor): > 10 µM
IC50 [40]: > 10 µM
IC50 [41]: > 10 µM
IC50 [42]: > 10 µM

— ChEMBL document CHEMBL1142222, “A-803467, a potent and selective Nav1.8 sodium channel blocker, attenuates neuropathic and inflammatory pain in the rat” (Proc Natl Acad Sci U S A, 2007)
